Format in all cases: biochemical, Penicillium citrinum
Test [1] concerns T1, PcβGlu2.
T1 construct: 93 kDa SDS-PAGE, 89 kDa gel filtration (abstract 95 kDa), monomer; GH3 only tentative (MS on heterogeneous fraction)
Kind of test: glucose release, glucose oxidase method at […] nm. The note with it: 50 mM sodium acetate pH 5.0, 40 °C.

Test [2] deals with T2, PcβGlu1.
T2 construct: native secreted enzyme purified from wheat-bran culture supernatant (ammonium sulfate, phenyl sepharose); 134 kDa SDS-PAGE, 258 kDa gel filtration (abstract 241 kDa), homodimer
Kind of test: glucose release, glucose oxidase method at […] nm. As to conditions: 50 mM sodium acetate pH 5.0, 40 °C.

Test [3] relates to T1, PcβGlu2. Kind of test: 4-methylumbelliferone fluorescence. As to conditions: 50 mM sodium acetate pH 5.0, 40 °C; substrate-inhibition model. The text has this:
4-methylumbelliferone fluorescence on PcβGlu2

In test [4] the test system is T2, PcβGlu1. The test can be described thus: 4-methylumbelliferone fluorescence. As to conditions: 50 mM sodium acetate pH 5.0, 40 °C. The text has this:
4-methylumbelliferone fluorescence on PcβGlu1

Test [5] addresses T2, PcβGlu1. Kind of test: pNPβGlu hydrolysis, p-nitrophenol release at […] nm. As to conditions: substrate pNPβGlu, 50 mM sodium acetate pH 5.0, 40 °C.
For test [6], the target named is T1, PcβGlu2. The test can be described thus: pNPβGlu hydrolysis, p-nitrophenol release at […] nm. As to conditions: substrate pNPβGlu, 50 mM sodium acetate pH 5.0, 40 °C.
Test [7] deals with T2, PcβGlu1. The test can be described thus: p-nitrophenol release at […] nm. As to conditions: 50 mM sodium acetate pH 5.0, 40 °C.
Test [8] concerns T1, PcβGlu2. The test can be described thus: p-nitrophenol release at […] nm. The note with it: 50 mM sodium acetate pH 5.0, 40 °C; substrate-inhibition model.
[9] abbreviates: mixed-type noncompetitive, free-enzyme constant, read-out: KIE.

SMILES strings stand for the structures. Like-named read-outs stand apart in the source and are kept apart here.

With `OC[C@H]1O[C@@H](O[C@H]2[C@H](O)[C@@H](O)[C@H](O[C@H]3[C@H](O)[C@@H](O)[C@H](O[C@H]4[C@H](O)[C@@H](O)[C@H](O[C@H]5[C@H](O)[C@@H](O)C(O)O[C@@H]5CO)O[C@@H]4CO)O[C@@H]3CO)O[C@@H]2CO)[C@H](O)[C@@H](O)[C@@H]1O` (some centres unmarked) [Cellopentaose], the Km was found to be 70 ± 10 µM with PcβGlu2 [1] (substrate-inhibition model) and 250 ± 20 µM with PcβGlu1 [2].
The corresponding values for `OC[C@H]1O[C@@H](O[C@H]2[C@H](O)[C@@H](O)[C@H](O[C@H]3[C@H](O)[C@@H](O)[C@H](O[C@H]4[C@H](O)[C@@H](O)C(O)O[C@@H]4CO)O[C@@H]3CO)O[C@@H]2CO)[C@H](O)[C@@H](O)[C@@H]1O` (some centres unmarked) [Cellotetraose] are 280 ± 70 µM and 420 ± 50 µM.
Consider `OC[C@H]1O[C@@H](OC[C@H]2OC(O)[C@H](O)[C@@H](O)[C@@H]2O)[C@H](O)[C@@H](O)[C@@H]1O` (some centres unmarked) [Gentiobiose], for which the figures for the Km in the test with PcβGlu2 [1] (Michaelis-Menten) and in the test on PcβGlu1 [2] were 620 ± 70 µM and 380 ± 40 µM, respectively.
Take `OC[C@H]1O[C@@H](O[C@H]2[C@H](O)[C@@H](CO)OC(O)[C@@H]2O)[C@H](O)[C@@H](O)[C@@H]1O` (some centres unmarked) [Laminaribiose]: the Km in the test with PcβGlu2 [1] (substrate-inhibition model) came to 420 ± 30 µM; with PcβGlu1 [2], 330 ± 40 µM.
As to `Cc1cc(=O)oc2cc(O[C@@H]3O[C@H](CO)[C@@H](O)[C@H](O)[C@H]3O)ccc12` [MUβGlu], the Km in the test on PcβGlu2 [3] stood at 14 ± 2 µM; in the test with PcβGlu1 [4], 240 ± 10 µM.
On to `CCCCCCCCO[C@@H]1O[C@H](CO)[C@@H](O)[C@H](O)[C@H]1O` [Octyl-β-glucopyranoside], for which the results for the Km in the test with PcβGlu2 [1] (substrate-inhibition model) and in the test with PcβGlu1 [2] were 190 ± 30 µM and 540 ± 30 µM, respectively.
With `OC[C@H]1O[C@@H](O[C@H]2[C@H](O)[C@@H](O)C(O)O[C@@H]2CO)[C@H](O)[C@@H](O)[C@@H]1O` (some centres unmarked) [cellobiose], the Km is 640 ± 60 µM with PcβGlu2 [1] (Michaelis-Menten) and 1700 ± 100 µM in the test with PcβGlu1 [2]. In addition, the Ki at PcβGlu1 [5] (setting [9]) was 10700 ± 100 µM; on PcβGlu2 [6] (setting [9]), 3740 ± 70 µM.
For the compound `OC[C@H]1OC(O)[C@H](O)[C@@H](O)[C@@H]1O` (some centres unmarked) [glucose], the Ki at PcβGlu1 [5] (competitive, read-out: Ki) was found to be 1890 ± 80 µM; at PcβGlu2 [6] (competitive, read-out: Ki) it was 880 ± 80 µM.
Consider `O=[N+]([O-])c1ccc(O[C@@H]2O[C@H](CO)[C@@H](O)[C@H](O)[C@H]2O)cc1` [pNPβGlu], for which the Km in the test on PcβGlu1 [7] stood at 280 ± 10 µM; in the test on PcβGlu2 [8], 72 ± 7 µM.

The values are drawn from paper PMC6100729, “Penicillium citrinum UFV1 β-glucosidases: purification, characterization, and application for biomass saccharification” (Biotechnology for Biofuels, 2018).
